Patent US20070082934A1, “Substituted 4-aryloxy and 4-arylsulfanyl-phenyl-2-aminothiazoles as inhibitors of cell proliferation” (priority 2003, published 2007)
Entries after “also recorded” stand apart in the source; their conditions may differ. Read-outs that look alike come from different tables or passages of the source.

What was measured:
MCF7 cells = assay: Inhibition of breast cell proliferation, SRB assay, 48 hour incubation; assay type: cell-based, human; details: for inhibition at 100 µM: Homo sapiens
Protocol: MCF7 cells were treated with compounds or vehicle (DMSO). […] Percent inhibition of growth at 100 μM was determined and GI50 values were calculated from log-dose response curves as previously described ([…] et al., Cancer Res., 2003, 63:3211-3220).

BT-549 = assay: NCI anti-tumor screen, SRB assay, 48 hour exposure; assay type: cell-based, human; details: BT-549 breast cancer cell line
Protocol: (§1) Compounds were tested at the National Cancer Institute's Developmental Therapeutics Program, in duplicate, against 60 human tumor cell lines at a minimum of five concentrations at 10-fold dilutions: A 48 hour continuous drug exposure protocol was used, and a sulforhodamine B (SRB) protein assay was used to estimate cell viability or growth.
(§2) Upon completion of the synthesis, the thiazole compounds 17-24 and 27-30 were submitted to the NCI's antitumor screen (see Monks et al., J. Natl. Cancer Inst., 1991, 83:757b 766; Bray and Wickstrom, Biotechniques, 1996, 21:5:780-782) and the results against human breast cancer cell lines are shown in Table 2 as GI50 values.

HS 578T = assay: NCI anti-tumor screen, SRB assay, 48 hour exposure; assay type: cell-based, human; details: estrogen-negative HS 578T cell line
Protocol: as §1, §2

MCF7 = assay: NCI anti-tumor screen, SRB assay, 48 hour exposure; assay type: cell-based, human; details: MCF7 breast cancer cell line
Protocol: as §1, §2

MDA-MB-231/ATCC = assay: NCI anti-tumor screen, SRB assay, 48 hour exposure; assay type: cell-based, human; details: MDA-MB-231/ATCC breast cancer cell line
Protocol: as §1, §2

MDA-MB-435 = assay: NCI anti-tumor screen, SRB assay, 48 hour exposure; assay type: cell-based, human; details: estrogen-negative cell line MDA-MB-435
Protocol: as §1, §2

NCI/ADR-RES = assay: NCI anti-tumor screen, SRB assay, 48 hour exposure; assay type: cell-based, human; details: adriamycin-resistant cell line
Protocol: as §1, §2

T-47D = assay: NCI anti-tumor screen, SRB assay, 48 hour exposure; assay type: cell-based, human; details: estrogen-positive cell line T-47D
Protocol: as §1, §2

[1] = system: human breast cancer cell lines; assay: NCI anti-tumor screen, breast cancer cell line panel as a whole; assay type: cell-based; details: for selectivity among breast cancer cell lines: comparison of GI50 values across cell lines; for growth inhibition of human breast tumor cells, in words: estrogen-positive and negative breast cancer cell lines
Protocol: as §1, §2

[2] = system: 60 human tumor cell lines; assay: NCI anti-tumor screen, all NCI cell lines; assay type: cell-based; details: NCI cell lines other than breast (FIG. 3)
Protocol: FIG. 3 is a graphic representation of a GI50 comparison for compound 17 (4-[4′-(4-Chlorophenoxy)-phenyl]-thiazol-2-yl ammonium iodide) for all NCI cell lines. The ordinate represents growth inhibitor activity and the abscissa indicates the type of tumor as well as each cell line treated with compound 17. L=leukemia; NSCLC Non-small cell lung cancer; C=Colon; CNS=central nervous system; M=Melanoma; O=Ovarian; R=Renal; P=Prostate; B=Breast.
as §1

Structure (SMILES)	inhibition at 100 µM (MCF7 cells)	GI50 (BT-549; Homo sapiens)	GI50 (HS 578T; Homo sapiens)	GI50 (MCF7; Homo sapiens)	GI50 (MDA-MB-231/ATCC; Homo sapiens)	GI50 (MDA-MB-435; Homo sapiens)	GI50 (NCI/ADR-RES; Homo sapiens, NCI/ADR-RES)	GI50 (T-47D; Homo sapiens, T47D)	% Inhibition of MCF7 cells at 100 μM (MCF7 cells)	selectivity among breast cancer cell lines [1]	melting point	other results
Nc1nc(-c2ccc(Oc3ccccc3)cc2)cs1 [Compound 16, 4-(4′-Phenoxyphenyl)-thiazol-2-yl ammonium iodide]	81%											
I.Nc1nc(-c2ccc(Oc3ccc(Cl)cc3)cc2)cs1 [Compound 17, 4-[4′-(4-Chlorophenoxy)-phenyl]-thiazol-2-yl ammonium iodide]	85%	> 100 µM	> 100 µM	> 100 µM	> 100 µM	> 100 µM	> 100 µM	0.917 µM				GI50 ([1]; Homo sapiens, T47D, all breast cancer cell lines except T-47D, read-out: GI50 in all cell lines except T-47D): > 100 µM; activity against other types of cancer [2]: not effective against other types of cancer
I.Nc1nc(-c2ccc(Oc3cccc(Cl)c3)cc2)cs1 [Compound 18, 4-[4-(3′-Chlorophenoxy)-phenyl]-thiazol-2-yl ammonium iodide]									100%	active only against estrogen receptor-negative breast cancer		GI50 (BT-549): 14.3 µM; GI50 (HS 578T): 19.7 µM; GI50 (MCF7): 14.6 µM; GI50 (MDA-MB-231/ATCC): 4.8 µM; GI50 (MDA-MB-435): 2.1 µM; GI50 (NCI/ADR-RES): 13.2 µM; GI50 (T-47D): 14 µM
I.Nc1nc(-c2ccc(Oc3ccccc3Cl)cc2)cs1 [Compound 19, 4-[4-(2′-Chlorophenoxy)-phenyl]-thiazol-2-yl ammonium iodide]									87%			GI50 (BT-549): 12.8 µM; GI50 (MCF7): 27.4 µM; GI50 (MDA-MB-231/ATCC): 10.5 µM; GI50 (MDA-MB-435): 14.8 µM; GI50 (NCI/ADR-RES): 25.8 µM; GI50 (T-47D): 16.4 µM
I.Nc1nc(-c2ccc(Oc3ccc(Cl)c(Cl)c3)cc2)cs1 [Compound 20, 4-[4′-(3,4-Dichlorophenoxy)-phenyl]-thiazol-2-yl ammonium iodide]	47%	1.91 µM	2 µM	3.02 µM	2.29 µM	0.759 µM	1.29 µM	20.9 µM		selectivity for the adriamycin-resistant cell line	202 to 205 °C	growth inhibition of human breast tumor cells, in words [1]: low micromolar growth inhibition of most human breast tumor cells; also recorded: low micromolar
COc1ccc(Oc2ccc(-c3csc(N)n3)cc2)cc1.I [Compound 21, 4-[4′-(4-Methoxyphenoxy)-phenyl]-thiazol-2-yl ammonium iodide]	24%										204 to 207 °C	
Cc1ccc(Oc2ccc(-c3csc(N)n3)cc2)cc1.I [Compound 22, 4-[4′-(p-Toluoxy)phenyl]-thiazol-2-yl ammonium iodide]	98%		22.7 µM	17.2 µM	14.1 µM	11.8 µM	18.2 µM	0.54 µM			118 to 120 °C	
I.Nc1nc(-c2ccc(Oc3ccc(-c4ccccc4)cc3)cc2)cs1 [Compound 23, 4-[4′-(Biphenyl-4-yloxy)-phenyl]-thiazol-2-yl ammonium iodide]	53%	10.4 µM	18.8 µM	14.3 µM	12.6 µM	18.6 µM	17.4 µM	3.91 µM			253 to 254 °C	
I.Nc1nc(-c2ccc(Oc3ccc(Oc4ccccc4)cc3)cc2)cs1 [Compound 24, 4-[4′-(4-Phenoxy-phenoxy)-phenyl]-thiazol-2-yl ammonium iodide]	81%	16.1 µM	27.8 µM	35.1 µM	12.6 µM	22.7 µM	35.9 µM	4.9 µM			137 to 140 °C	
CCOC(=O)c1cccc(Oc2ccc(-c3csc(N)n3)cc2)c1.I [Compound 25, 4-[4-(3′-Ethoxycarbonyl-phenoxy)-phenyl]-thiazol-2-yl ammonium iodide]									84%			
I.Nc1nc(-c2ccc(Sc3ccccc3)cc2)cs1 [Compound 26, 4-(4′-Phenylsulfanyl-phenyl)-thiazol-2-yl ammonium iodide]	79%										129 to 132 °C	
I.Nc1nc(-c2ccc(Sc3ccc(Cl)cc3)cc2)cs1 [Compound 27, 4-[4-(4′-Chloro-phenylsulfanyl)-phenyl]-thiazol-2-yl ammonium iodide]									89%	active only against estrogen receptor-negative breast cancer		GI50 (BT-549): 15.3 µM; GI50 (HS 578T): 18.8 µM; GI50 (MCF7): 21.6 µM; GI50 (MDA-MB-231/ATCC): 12.4 µM; GI50 (MDA-MB-435): 1.49 µM; GI50 (NCI/ADR-RES): 17.5 µM; GI50 (T-47D): 24.4 µM
I.Nc1nc(-c2ccc(Sc3ccc(Cl)c(Cl)c3)cc2)cs1 [Compound 28, 4-[4-(3′,4′-Dichloro-phenylsulfanyl)-phenyl]-thiazol-2-yl ammonium iodide]									54%	selectivity for the adriamycin-resistant cell line		GI50 (BT-549): 5.95 µM; GI50 (MCF7): 5.68 µM; GI50 (MDA-MB-231/ATCC): 3.73 µM; GI50 (MDA-MB-435): 1.11 µM; GI50 (NCI/ADR-RES): 3.37 µM; GI50 (T-47D): 2.79 µM; GI50 ([1]; all breast cancer cell lines except HS 578T, read-out: GI50 values in all cell lines except HS 578T): 1 to 5 µM; growth inhibition of human breast tumor cells, in words [1]: low micromolar growth inhibition of most human breast tumor cells
COc1ccc(Sc2ccc(-c3csc(N)n3)cc2)cc1.I [Compound 29, 4-[4-(4′-Methoxy-phenylsulfanyl)-phenyl]-thiazol-2-yl ammonium iodide]									11%			
Cc1ccc(Sc2ccc(-c3csc(N)n3)cc2)cc1.I [Compound 30, 4-(4′p-Tolylsulfanyl-phenyl)-thiazol-2-yl ammonium iodide]	96%	25.7 µM	59.6 µM	25.9 µM	> 100 µM	1.4 µM	64.6 µM	68 µM		active only against estrogen receptor-negative breast cancer	182 to 185 °C	
